The values that follow come from EP1169036B1, “ANTI-VIRAL USES OF LEFLUNOMIDE PRODUCTS” (priority 1998, dated 1999).

Like-named read-outs stand apart in the source and are kept apart here. Some results are limits rather than exact numbers.

Experiment [1] deals with Adenovirus Type 1. Kind of experiment: microbe, parasite or virus in culture. The format is cell-based. The settings on record: Human mastadenovirus C, A549; read-out: CPE Inhibition test EC50.
Experiment [2] has as its system Measles Virus. Kind of experiment: microbe, parasite or virus in culture. The settings on record: Measles morbillivirus, CV-1; read-out: CPE Inhibition test EC50. The format is cell-based.
The test system of experiment [3] is Parainfluenza Type 3 Virus. The experiment in a line: organism not typed. The class given is cell-based. The settings on record: MA104; read-out: CPE Inhibition test EC50.
For experiment [4], the system named is Respiratory Syncytial Virus A. The experiment in a line: microbe, parasite or virus in culture. The format is cell-based. The conditions noted are these: human respiratory syncytial virus, MA104; read-out: CPE Inhibition test EC50.
The subject of experiment [5] is Rhinovirus Type 5. Kind of experiment: microbe, parasite or virus in culture. The conditions noted are these: Enterovirus; read-out: CPE Inhibition test EC50. The class given is cell-based.
For experiment [6], the system named is Adenovirus Type 1. The experiment in a line: microbe, parasite or virus in culture. The class given is cell-based. The settings on record: Human mastadenovirus C, A549; read-out: Neutral Red Uptake test EC50.
The subject of experiment [7] is Measles Virus. Kind of experiment: microbe, parasite or virus in culture. The settings on record: Measles morbillivirus, CV-1; read-out: Neutral Red Uptake test EC50. The class given is cell-based.
The test system of experiment [8] is Parainfluenza Type 3 Virus. The experiment in a line: organism not typed. The class given is cell-based. The settings on record: MA104; read-out: Neutral Red Uptake test EC50.
Experiment [9] concerns Respiratory Syncytial Virus A. Kind of experiment: microbe, parasite or virus in culture. The class given is cell-based. The settings on record: human respiratory syncytial virus, MA104; read-out: Neutral Red Uptake test EC50.
Experiment [10] has as its system Rhinovirus Type 5. The experiment in a line: Neutral red uptake test. The format is cell-based. The settings on record: Enterovirus, read-out: Neutral Red Uptake test EC50. The text has this: Environment. Microbiol, 31:35-38, 1976).
Experiment [11] has as its system Madin Darby canine kidney (MDCK) cells. The experiment in a line: cells. The class given is cell-based. The settings on record: Canis lupus familiaris, cytotoxic concentration, positive control drug = ribavirin, read-out: CPE Inhibition test IC50.
In experiment [12] the test system is human lung carcinoma (A549) cells. The experiment in a line: cells. The class given is cell-based. The settings on record: read-out: CPE Inhibition test IC50.
For experiment [13], the system named is African green monkey kidney (CV-1) cells. The experiment in a line: cells. The format is cell-based. The settings on record: Chlorocebus sabaeus, read-out: CPE Inhibition test IC50.
Experiment [14] deals with African green monkey kidney (MA-104) cells. The experiment in a line: cells. The format is cell-based. The conditions noted are these: Chlorocebus sabaeus, MA104, cytotoxic concentration, positive control drug = ribavirin, read-out: CPE Inhibition test IC50.
For experiment [15], the system named is uninfected cells. The experiment in a line: Cytotoxicity, microscopic reading of uninfected cells in the CPE inhibition test (rhinovirus host cells, not named). The class given is cell-based. On the procedure: (§1) Cytotoxicity of each test compound is also evaluated as follows. In the initial CPE inhibition tests, two wells of uninfected cells treated with each concentration of test compound are run in parallel with the infected, treated wells. When the CPE is determined microscopically, the toxicity control cells are also examined microscopically for any changes in cell appearance compared to normal uninfected, untreated control cells. Changes, which may manifest as enlargement, granularity, ragged edges, filmy appearance, rounding, detachment from the surface of the well, or other changes, are given a designation of T (100% toxic), PVH (partially toxic-very heavy-80%), PH (partially toxic-heavy-60%), P (partially toxic-40%), PS (partially toxic-slight-20%) or 0 (no toxicity-0%) in accordance with the degree of cytotoxicity observed. […] A neutral red IC50 is also determined based on uptake of neutral red dye by the toxicity control cells.

For experiment [16], the system named is Madin Darby canine kidney (MDCK) cells. Kind of experiment: cells. The class given is cell-based. The settings on record: Canis lupus familiaris, cytotoxic concentration, positive control drug = ribavirin, read-out: Neutral Red Uptake test IC50.
In experiment [17] the test system is African green monkey kidney (CV-1) cells. Kind of experiment: cells. The conditions noted are these: Chlorocebus sabaeus, read-out: Neutral Red Uptake test IC50. The format is cell-based.
Experiment [18] relates to African green monkey kidney (MA-104) cells. Kind of experiment: Cytotoxicity, neutral red uptake by toxicity control cells. The conditions noted are these: Chlorocebus sabaeus, read-out: Neutral Red Uptake test IC50. The format is cell-based.
Experiment [19] concerns uninfected cells. The experiment in a line: Cytotoxicity, neutral red uptake by toxicity control cells (rhinovirus host cells, not named). The format is cell-based. The conditions noted are these: read-out: Neutral Red Uptake test IC50. On the procedure:
as §1

The test system of experiment [20] is human lung carcinoma (A549) cells. Kind of experiment: cells. The format is cell-based. The conditions noted are these: read-out: Neutral Red Uptake test IC50.
Experiment [21] has as its system viral immediate early (IE1) or late glycoprotein (gB) mRNA. The experiment in a line: Northern blot of viral mRNA in infected HUVEC. The format is cell-based, CMV. The conditions noted are these: 200 µM A771726, 48 hours. On the procedure: Northern blot analysis was employed to determine whether A771726 quantitatively affected transcription of viral immediate early (IE1) or late glycoprotein (gB) mRNA.
HUVEC monolayers in 6-well culture plates were inoculated with CMV strain VHL/E (0.5 PFU/cell) in the presence or absence of 200 µM A771726 and/or 200 µM uridine (6 wells/treatment) as described above, and incubated for 48 hours. […] Total cytoplasmic RNA was isolated from each culture, by 18-hour ultracentrifugation of guanidine isothiocyanate/BME extracts overlayed on cesium chloride cushions. […] 50 ng of full-length IE1 and gB were incubated in a 50 µl PCR reaction including a nucleotide triphosphate mix containing 700 nM α-[^32P]dCTP (Amersham) and either IE1 primers [IE1 sense: 5' […] 3' (SEQ ID NO: 1) and IE1 antisense: 5'[…] 3' (SEQ ID NO: 2)] or gB primers [gB sense: 5 […] 3' (SEQ ID NO: 3) and gB antisense: 5' […] 3' (SEQ ID NO: 4)]. A cDNA probe for GAPDH was radiolabelled using a random priming kit (Decaprime II, Ambion, Inc., Austin TX) as previously described. […] Membranes were hybridized, washed, and bound probe was detected by autoradiography as previously described. Membranes were stripped and reprobed for GAPDH, and scanning densitometry was used to quantitate IE1 and gB band densities, and to normalize these values to those of GAPDH.

The subject of a further experiment is CMV strain VHL/E. Kind of experiment: Transmission electron microscopy of virion morphology in CMV-infected HUVEC. The format is cell-based. The conditions noted are these: 200 µM A771726, 4-7 days. On the procedure:
Transmission electron microscopy.was employed to directly examine virion morphology within A771726-treated or untreated CMV-infected HUVEC. HUVEC monolayers in 6-well culture plates were inoculated with CMV strain VHL/E (1.0 PFU/cell) in the presence or absence of 200 µM A771726 as described above, and incubated for 4-7 days. Cells were harvested by brief trypsin digestion, washed twice in PBS, then fixed by the.addition of 1 ml 2% phosphate buffered gluteraldehyde and again pelleted by centrifugation. Specimens were post-fixed in 1% phosphate buffered osmium tetroxide (1 hour), then dehydrated in graded ethanol washes. Specimens were embedded in Spur low viscosity embedding media (SEM). Blocks were cured for a minimum of 12 hours at 70°C. Thin sections (approximately 100 nm) were cut from cured blocks using an ultramicrotome (LKB Nova), and mounted on 200 mesh copper grids. Grids were heavy metal-stained using a standard two-step uranyl acetate/lead citrate technique, then examined and photographed at 80 kV with a Zeiss EM900 transmission electron microscope by an individual with no knowledge of the nature of the investigation.

In the next experiment the target is T1, HSV DNA polymerase (Human herpesvirus 1, UniProt P04293).
T1 construct: a biochemical assay of HSV DNA polymerase activity in HSV-infected cells; endogenous in cells
T1 sequence (P10226 whole entry): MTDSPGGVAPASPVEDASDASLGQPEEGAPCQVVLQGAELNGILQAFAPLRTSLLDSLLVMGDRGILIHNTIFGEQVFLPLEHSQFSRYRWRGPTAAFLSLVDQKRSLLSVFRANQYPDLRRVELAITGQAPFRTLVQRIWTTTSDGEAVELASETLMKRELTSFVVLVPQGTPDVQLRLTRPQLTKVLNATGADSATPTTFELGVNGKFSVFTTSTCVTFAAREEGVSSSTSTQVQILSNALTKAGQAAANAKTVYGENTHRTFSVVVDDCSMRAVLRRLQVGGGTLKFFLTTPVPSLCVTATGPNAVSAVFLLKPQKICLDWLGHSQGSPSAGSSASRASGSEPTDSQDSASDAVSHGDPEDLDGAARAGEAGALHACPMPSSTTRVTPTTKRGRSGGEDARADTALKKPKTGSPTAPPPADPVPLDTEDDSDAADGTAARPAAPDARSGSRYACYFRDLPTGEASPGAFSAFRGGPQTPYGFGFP
T1 sequence (P04293 whole entry): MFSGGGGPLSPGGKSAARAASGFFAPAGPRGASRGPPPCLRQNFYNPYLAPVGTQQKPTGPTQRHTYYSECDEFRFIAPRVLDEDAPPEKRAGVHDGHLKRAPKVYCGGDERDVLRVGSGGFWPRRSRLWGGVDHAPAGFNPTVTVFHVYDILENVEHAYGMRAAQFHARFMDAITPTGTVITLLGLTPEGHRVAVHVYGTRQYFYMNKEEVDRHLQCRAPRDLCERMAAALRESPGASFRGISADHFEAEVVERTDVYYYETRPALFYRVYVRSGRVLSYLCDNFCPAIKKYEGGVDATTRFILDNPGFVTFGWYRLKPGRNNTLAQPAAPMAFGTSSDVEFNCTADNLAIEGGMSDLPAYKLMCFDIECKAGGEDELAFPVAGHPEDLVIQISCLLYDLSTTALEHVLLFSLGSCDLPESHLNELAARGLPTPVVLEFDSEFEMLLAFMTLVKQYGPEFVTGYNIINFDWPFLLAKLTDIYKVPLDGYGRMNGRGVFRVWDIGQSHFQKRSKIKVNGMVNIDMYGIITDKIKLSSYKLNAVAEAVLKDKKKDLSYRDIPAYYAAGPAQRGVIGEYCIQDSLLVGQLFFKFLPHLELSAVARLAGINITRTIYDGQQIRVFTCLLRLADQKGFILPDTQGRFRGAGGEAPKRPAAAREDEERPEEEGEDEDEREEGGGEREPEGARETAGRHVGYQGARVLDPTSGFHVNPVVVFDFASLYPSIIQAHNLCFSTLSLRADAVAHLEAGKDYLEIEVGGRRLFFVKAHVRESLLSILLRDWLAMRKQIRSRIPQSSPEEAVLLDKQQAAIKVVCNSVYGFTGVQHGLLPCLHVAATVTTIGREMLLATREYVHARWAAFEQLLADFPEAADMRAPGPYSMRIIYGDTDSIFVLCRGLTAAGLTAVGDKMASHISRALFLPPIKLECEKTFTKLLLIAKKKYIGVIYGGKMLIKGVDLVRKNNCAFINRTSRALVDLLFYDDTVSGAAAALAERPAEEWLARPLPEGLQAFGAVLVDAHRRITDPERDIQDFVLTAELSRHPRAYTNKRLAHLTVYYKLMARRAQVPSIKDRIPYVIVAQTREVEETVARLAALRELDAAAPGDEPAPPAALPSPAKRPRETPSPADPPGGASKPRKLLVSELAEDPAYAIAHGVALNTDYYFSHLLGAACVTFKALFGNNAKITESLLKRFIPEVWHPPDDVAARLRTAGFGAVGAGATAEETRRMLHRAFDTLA
Kind of experiment: HSV DNA polymerase biochemical assay. The settings on record: all HSV isolates in VERO cells and HUVEC.

Another experiment deals with HSV. Kind of experiment: Transmission electron microscopy of virion morphology in HSV-infected HUVEC. The class given is cell-based.
The mark [22] stands for this setting: run with Parainfluenza Type 3 Virus.
[23] abbreviates: run with Respiratory Syncytial Virus A.
Setting [24] is: MA104, cytotoxic concentration, run with Parainfluenza Type 3 Virus, positive control drug = ribavirin.

Turning to `Cc1nocc1C(=O)Nc1ccc(C(F)(F)F)cc1` [Compound 99-126, N-(4-trifluoromethylphenyl)-3-methylisoxazol-4-carboxamide], the concentration for a half-maximal effect (EC50) (as a rule, the concentration giving half of the maximal effect) in the experiment with Adenovirus Type 1 [1] was > 100 µM; in the experiment on Measles Virus [2], 10 µM; in experiment [3] it was > 100 µM; in experiment [4], > 100 µM; with Rhinovirus Type 5 [5] it was 100 µM; in the experiment on Adenovirus Type 1 [6] it was > 100 µM. Moreover, the half-maximal effective concentration (EC50) with Measles Virus [7] is 14 µM; in [8] it was 20 µM; in experiment [9] it was > 100 µM; in the experiment on Rhinovirus Type 5 [10], > 100 µM. Further, the IC50 (commonly the point on the concentration scale where inhibition reaches its midpoint) is 63 µM in experiment [11] (run with Influenza A (H1N1)); 72 µM in [11] (run with Influenza A (H3N2)); 72 µM in [11] (run with Influenza B); 60 µM in experiment [12]; 60 µM in [13]; 11 µM in experiment [14] (setting [22]). The IC50 in [14] (setting [23]) was found to be 40 µM; in the experiment with uninfected cells [15], 100 µM; in experiment [16] (run with Influenza A (H1N1)), 48 µM; in [16] (run with Influenza A (H3N2)) it was 30 µM; in experiment [16] (run with Influenza B), 46 µM; in experiment [17], 25 µM. Moreover, the IC50 is 20 µM in experiment [18] (setting [24]), 30 µM in [18] (MA104) and > 100 µM in the experiment on uninfected cells [19].

In the case of `C/C(O)=C(\C#N)C(=O)Nc1ccc(C(F)(F)F)cc1` [Compound A771726, N-(4-trifluoromethylphenyl)-2-cyano-3-hydroxycrotonamide], the half-inhibitory concentration (IC50) in experiment [11] (run with Influenza A (H1N1)) is 29 µM; in [11] (run with Influenza A (H3N2)) it was 30 µM; in experiment [11] (run with Influenza B) it was 50 µM; in experiment [13], > 660 µM; in experiment [14] (setting [22]), 30 µM; in experiment [14] (setting [23]), 20 µM. Further, the IC50 was determined as 1000 µM in the experiment with uninfected cells [15]; 580 µM in [20]; 50 µM in experiment [18] (setting [24]); 143 µM in experiment [18] (MA104, cytotoxic concentration, run with Respiratory Syncytial Virus A, positive control drug = ribavirin); 500 µM in the experiment with uninfected cells [19]. Moreover, in experiment [21], the “transcription of IE1 or gB genes” value was “no inhibitory effect”. Moreover, in the experiment with CMV strain VHL/E, the “virion morphology in the cytoplasm” value is on record as “viral particles appeared not to have matured far beyond the 100 nM naked capsid stage”. Besides, the “HSV DNA polymerase activity” value at HSV DNA polymerase was “no detectable inhibitory effect”. Besides, the “virion morphology, tegument acquisition” value with HSV was “appear not to acquire tegument”.
